The results in this text go back to patent publication US20060264460A1 (Wyeth, priority 2005, published 2006).

pIC50: −log10 of the molar value. Some results are limits rather than exact numbers.

The target in this assay is T1, human Cot/Tpl2 kinase (Homo sapiens, UniProt P41279).
T1 construct: human Cot/Tpl2 kinase construct encoding residues 30-398; 6His (N); made in house; host or cells: Sf9 insect cells, baculovirus system (BD Biosciences)
T1 sequence (P41279 30-398): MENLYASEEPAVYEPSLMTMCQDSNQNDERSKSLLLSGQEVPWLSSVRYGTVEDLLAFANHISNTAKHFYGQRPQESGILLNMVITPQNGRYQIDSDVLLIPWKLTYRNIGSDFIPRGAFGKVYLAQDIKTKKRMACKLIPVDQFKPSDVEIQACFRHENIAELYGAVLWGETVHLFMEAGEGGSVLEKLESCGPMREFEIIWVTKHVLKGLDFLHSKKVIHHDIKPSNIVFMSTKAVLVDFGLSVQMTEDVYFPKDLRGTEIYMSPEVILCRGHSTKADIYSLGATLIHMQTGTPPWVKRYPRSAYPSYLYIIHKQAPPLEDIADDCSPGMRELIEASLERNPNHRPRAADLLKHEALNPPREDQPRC
The experiment in a line: Tpl2/Cot kinase assay: GST-MEK1 phosphorylation detected by ELISA (DELFIA Eu). The assay is classed as biochemical. To be noted: 0.4 nM Tpl2, 35 nM GST-MEK1, 50 uM ATP, 1 h at 30° C. Put shortly:
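Substrate phosphorylation (GST-MEK1 Ser217/221) quantified by DELFIA europium ELISA, yielding IC50 values. Reaction: 1 h at 30° C, pH 7.2 MOPS buffer, 50 uM ATP, 35 nM GST-MEK1, 0.4 nM monomeric His-Tpl2 purified from Sf9 cells, compounds at 1% final DMSO; stopped with EDTA.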
In general terms: An ELISA detects its analyte on a solid surface through an enzyme-linked reagent.
Regarding `N#Cc1cnc2c(Cl)cc(NCc3c(CCCO)ncn3COCc3ccccc3)cc2c1Nc1ccc(F)c(Cl)c1` [Example 198, 6-({[1-[(benzyloxy)methyl]-4-(3-hydroxypropyl)-1H-imidazol-5-yl]methyl}amino)-8-chloro-4-[(3-chloro-4-fluorophenyl)amino]quinoline-3-carbonitrile], the pIC50 (usually −log10 of the IC50, conventionally taken in molar units) was 6.06.
The molecule `CCNc1cc(Cl)c2ncc(C#N)c(Nc3ccc(F)c(Cl)c3)c2c1` [Example 199, 8-chloro-4-[(3-chloro-4-fluorophenyl)amino]-6-(ethylamino)quinoline-3-carbonitrile] showed a pIC50 of 5.85.
Consider `N#Cc1cnc2c(Cl)cc(NCCc3nnn[nH]3)cc2c1Nc1ccc(F)c(Cl)c1` [Example 200, 8-chloro-4-[(3-chloro-4-fluorophenyl)amino]-6-{[2-(1H-tetrazol-5-yl)ethyl]amino}quinoline-3-carbonitrile], for which the negative-log IC50 (pIC50) is 7.17. This pIC50 is 1.32 log units higher than that of the molecule before.
Molecule `Cn1cnc(CNc2cc(Cl)c3ncc(C#N)c(Nc4ccc(F)c(Cl)c4)c3c2)c1` [Example 201, 8-chloro-4-[(3-chloro-4-fluorophenyl)amino]-6-{[(1-methyl-1H-imidazol-4-yl)methyl]amino}quinoline-3-carbonitrile] gave a pIC50 of 8.04.
For the molecule `N#Cc1cnc2c(Cl)cc(NCC3=NCCN3)cc2c1Nc1ccc(F)c(Cl)c1` [Example 204, 8-chloro-4-[(3-chloro-4-fluorophenyl)amino]-6-[(4,5-dihydro-1H-imidazol-2-ylmethyl)amino]quinoline-3-carbonitrile], the pIC50 was 5.59.
Molecule `N#Cc1cnc2c(Cl)cc(NCc3[nH]cnc3CCCO)cc2c1Nc1ccc(F)c(Cl)c1` [Example 205, 8-chloro-4-[(3-chloro-4-fluorophenyl)amino]-6-({[4-(3-hydroxypropyl)-1H-imidazol-5-yl]methyl}amino)quinoline-3-carbonitrile] had a pIC50 of 8.49.
`CN(C)C=Nc1cc(Cl)c2ncc(C#N)c(Nc3ccc(F)c(Cl)c3)c2c1` [Example 206, N′-{8-chloro-4-[(3-chloro-4-fluorophenyl)amino]-3-cyanoquinolin-6-yl}-N,N-dimethylimidoformamide]: the pIC50 is 5.13.
With `N#Cc1cnc2c(Cl)cc(NCCN=[N+]=[N-])cc2c1Nc1ccc(F)c(Cl)c1` [Example 210, 6-[(2-azidoethyl)amino]-8-chloro-4-[(3-chloro-4-fluorophenyl)amino]quinoline-3-carbonitrile], the pIC50 was 5.72.
Molecule `N#Cc1cnc2c(Cl)cc(NCCn3ccnn3)cc2c1Nc1ccc(F)c(Cl)c1` [Example 211, 8-chloro-4-[(3-chloro-4-fluorophenyl)amino]-6-{[2-(1H-1,2,3-triazol-1-yl)ethyl]amino}quinoline-3-carbonitrile] had a pIC50 of 6.46. This pIC50 lies 0.74 log units higher than the previous one.
In turn, `N#Cc1cnc2c(Cl)cc(NCCn3ccnc3)cc2c1Nc1ccc(F)c(Cl)c1` [Example 212, 8-chloro-4-[(3-chloro-4-fluorophenyl)amino]-6-{[2-(1H-imidazol-1-yl)ethyl]amino}quinoline-3-carbonitrile] gave a negative logarithm of the IC50 (pIC50) of 6.40. The pIC50 values of the last two molecules are within 0.2 log units of each other.
The molecule `N#Cc1cnc2c(Cl)cc(NCCn3cc(CCO)nn3)cc2c1Nc1ccc(F)c(Cl)c1` [Example 213, 8-chloro-4-[(3-chloro-4-fluorophenyl)amino]-6-({2-[4-(2-hydroxyethyl)-1H-1,2,3-triazol-1-yl]ethyl}amino)quinoline-3-carbonitrile] showed a pIC50 of 5.82. This pIC50 is 0.58 log units lower than that of the molecule before.
`CC(C)c1nc[nH]c1CNc1cc(Cl)c2ncc(C#N)c(Nc3ccc(F)c(Cl)c3)c2c1` [Example 214, 8-chloro-4-[(3-chloro-4-fluorophenyl)amino]-6-{[(4-isopropyl-1H-imidazol-5-yl)methyl]amino}quinoline-3-carbonitrile] had a negative logarithm of the IC50 (pIC50) of 7.80.
For the molecule `N#Cc1cnc2c(Cl)cc(NCc3nnn4ccccc34)cc2c1Nc1ccc(F)c(Cl)c1` [Example 216, 6-([1,2,3]triazolo[1,5-a]pyridin-3-ylmethylamino)-8-chloro-4-(3-chloro-4-fluorophenylamino)quinoline-3-carbonitrile], the pIC50 is 8.23.
Regarding `Cn1cc(CNc2cc(Cl)c3ncc(C#N)c(Nc4ccc(F)c(Cl)c4)c3c2)nn1` [Example 217, 8-chloro-4-[(3-chloro-4-fluorophenyl)amino]-6-{[(1-methyl-1H-1,2,3-triazol-4-yl)methyl]amino}quinoline-3-carbonitrile], the pIC50 was 8.14.
On to `COCC(=O)NCCn1cc(CNc2cc(Br)c3ncc(C#N)c(Nc4ccc(F)c(Cl)c4)c3c2)nn1` [Example 218, N-(2-(4-((8-bromo-4-(3-chloro-4-fluorophenylamino)-3-cyanoquinolin-6-ylamino)methyl)-1H-1,2,3-triazol-1-yl)ethyl)-2-methoxyacetamide], for which the pIC50 is 7.49. This pIC50 is 0.65 log units lower than that of the molecule before.
Then `COCC(=O)NCCn1cc(CNc2cc(Cl)c3ncc(C#N)c(Nc4ccc(F)c(Cl)c4)c3c2)nn1` [Example 219, N-(2-(4-((8-chloro-4-(3-chloro-4-fluorophenylamino)-3-cyanoquinolin-6-ylamino)methyl)-1H-1,2,3-triazol-1-yl)ethyl)-2-methoxyacetamide], with 7.19.
Take `Cn1ccnc1CNc1cc(Br)c2ncc(C#N)c(Nc3ccc(F)c(Cl)c3)c2c1` [Example 220, 8-bromo-4-[(3-chloro-4-fluorophenyl)amino]-6-{[(1-methyl-1H-imidazol-2-yl)methyl]amino}quinoline-3-carbonitrile]: the negative-log IC50 (pIC50) was 7.59.
The molecule `Cn1cc(CNc2cc(Br)c3ncc(C#N)c(Nc4ccc(F)c(Cl)c4)c3c2)nn1` [Example 221, 8-bromo-4-(3-chloro-4-fluorophenylamino)-6-((1-methyl-1H-1,2,3-triazol-4-yl)methylamino)quinoline-3-carbonitrile] gave a negative logarithm of the IC50 (pIC50) of 7.55.
In the case of `N#Cc1cnc2c(Cl)cc(NCc3cn(CCN4CCOC4=O)nn3)cc2c1Nc1ccc(F)c(Cl)c1` [Example 222, 8-chloro-4-(3-chloro-4-fluorophenylamino)-6-((1-(2-(2-oxooxazolidin-3-yl)ethyl)-1H-1,2,3-triazol-4-yl)methylamino)quinoline-3-carbonitrile], the pIC50 was 8.00.
On to `N#Cc1cnc2c(Br)cc(NCc3cn(CCN4CCOC4=O)nn3)cc2c1Nc1ccc(F)c(Cl)c1` [Example 223, 8-bromo-4-(3-chloro-4-fluorophenylamino)-6-((1-(2-(2-oxooxazolidin-3-yl)ethyl)-1H-1,2,3-triazol-4-yl)methylamino)quinoline-3-carbonitrile], for which the pIC50 was 7.43.
`N#Cc1cnc2c(Cl)cc(NCc3cn(CS(=O)(=O)N4CCOCC4)nn3)cc2c1Nc1ccc(F)c(Cl)c1` [Example 224, 8-chloro-4-(3-chloro-4-fluorophenylamino)-6-((1-(morpholinosulfonylmethyl)-1H-1,2,3-triazol-4-yl)methylamino)quinoline-3-carbonitrile] had a negative-log IC50 (pIC50) of 6.55.
For `Cc1cc2ncc(C#N)c(Nc3ccc(F)c(Cl)c3)c2cc1NCc1cccnc1` [Example 225, 4-[(3-Chloro-4-fluorophenyl)amino]-7-methyl-6-[(pyridin-3-ylmethyl)amino]quinoline-3-carbonitrile], the pIC50 was less than 4.40.
For `Cc1cc2ncc(C#N)c(Nc3ccc(F)c(Cl)c3)c2cc1NCc1cnc[nH]1` [Example 226, 4-[(3-chloro-4-fluorophenyl)amino]-6-[(1H-imidazol-5-ylmethyl)amino]-7-methylquinoline-3-carbonitrile], the pIC50 was less than 4.40.
In turn, `Cc1cc2ncc(C#N)c(Nc3ccc(F)c(Cl)c3)c2cc1NCCN1CCOCC1` [Example 227, 4-[(3-chloro-4-fluorophenyl)amino]-7-methyl-6-[(2-morpholin-4-ylethyl)amino]quinoline-3-carbonitrile] gave a pIC50 of less than 4.40.
Regarding `N#Cc1cnc2ccc(NCc3c[nH]c(=O)[nH]c3=O)cc2c1Nc1ccc(F)c(Cl)c1` [Example 228, 4-[(3-chloro-4-fluorophenyl)amino]-6-{[(2,4-dioxo-1,2,3,4-tetrahydropyrimidin-5-yl)methyl]amino}quinoline-3-carbonitrile], the pIC50 was 6.32.
Turning to `N#Cc1cnc2c(C(F)(F)F)cc(NCc3cnc[nH]3)cc2c1Nc1ccc(F)c(Cl)c1` [Example 229, 4-[(3-chloro-4-fluorophenyl)amino]-6-[(1H-imidazol-5-ylmethyl)amino]-8-(trifluoromethyl)quinoline-3-carbonitrile], the pIC50 was 6.72.
`N#Cc1cnc2c(C(F)(F)F)cc(NCc3cccnc3)cc2c1Nc1ccc(F)c(Cl)c1` [Example 230, 4-[(3-chloro-4-fluorophenyl)amino]-6-[(pyridin-3-ylmethyl)amino]-8-(trifluoromethyl)quinoline-3-carbonitrile]: the pIC50 is less than 4.40.
The molecule `N#Cc1cnc2c(C(F)(F)F)cc(NCc3ccccn3)cc2c1Nc1ccc(F)c(Cl)c1` [Example 231, 4-[(3-chloro-4-fluorophenyl)amino]-6-[(pyridin-2-ylmethyl)amino]-8-(trifluoromethyl)quinoline-3-carbonitrile] had a pIC50 of 4.71.
`N#Cc1cccc(CNc2cc(C(F)(F)F)c3ncc(C#N)c(Nc4ccc(F)c(Cl)c4)c3c2)c1` [Example 232, 4-[(3-chloro-4-fluorophenyl)amino]-6-[(3-cyanobenzyl)amino]-8-(trifluoromethyl)quinoline-3-carbonitrile] gave a pIC50 of 4.62.
In turn, `N#Cc1ccccc1CNc1cc(C(F)(F)F)c2ncc(C#N)c(Nc3ccc(F)c(Cl)c3)c2c1` [Example 233, 4-[(3-chloro-4-fluorophenyl)amino]-6-[(2-cyanobenzyl)amino]-8-(trifluoromethyl)quinoline-3-carbonitrile] gave a pIC50 of less than 4.40.
Molecule `N#Cc1ccc(CNc2cc(C(F)(F)F)c3ncc(C#N)c(Nc4ccc(F)c(Cl)c4)c3c2)cc1` [Example 234, 4-[(3-chloro-4-fluorophenyl)amino]-6-[(4-cyanobenzyl)amino]-8-(trifluoromethyl)quinoline-3-carbonitrile] showed a pIC50 of 4.82.
